By IC50 is commonly meant the point on the concentration scale where inhibition reaches its midpoint. As usually defined, the microsomal CLint is a measure of how fast metabolising enzymes remove a compound, apart from limits set by blood flow.

We go through 3 compounds from ChEMBL document CHEMBL6087392, “Discovery of ZG-2305, an Orally Bioavailable Factor Inhibiting HIF Inhibitor for the Treatment of Obesity and Fatty Liver Disease” (J Med Chem, 2025).

Series [1] deals with Cytochrome P450 2C9 (Homo sapiens, UniProt P11712). Kind of series: Inhibition of CYP2C9 in human liver microsomes using diclofenac as substrate preincubated for 5 mins followed by NADPH addition and measured after 10 mins by LC-MS/MS analysis. In kind it is ADME, Microsome. (Liver microsomes are vesicles of endoplasmic reticulum, rich in cytochrome P450 enzymes.)
Cytochrome P450 2C9, sequence (P11712 whole entry): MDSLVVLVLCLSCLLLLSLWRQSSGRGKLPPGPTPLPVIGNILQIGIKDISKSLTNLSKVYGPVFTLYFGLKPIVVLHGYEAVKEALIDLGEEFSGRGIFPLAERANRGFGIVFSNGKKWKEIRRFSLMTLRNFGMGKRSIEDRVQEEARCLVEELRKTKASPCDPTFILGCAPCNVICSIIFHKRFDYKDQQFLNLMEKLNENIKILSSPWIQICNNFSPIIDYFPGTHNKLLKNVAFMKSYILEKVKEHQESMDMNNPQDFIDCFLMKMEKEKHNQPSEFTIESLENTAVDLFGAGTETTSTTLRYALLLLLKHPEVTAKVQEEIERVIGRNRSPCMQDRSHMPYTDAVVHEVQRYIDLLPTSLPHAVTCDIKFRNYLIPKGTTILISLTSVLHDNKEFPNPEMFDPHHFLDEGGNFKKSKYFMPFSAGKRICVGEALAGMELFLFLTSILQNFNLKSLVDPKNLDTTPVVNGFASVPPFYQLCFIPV
Series [2] deals with Voltage-gated inwardly rectifying potassium channel KCNH2 (Homo sapiens, UniProt Q12809). Kind of series: Inhibition of human ERG at 30 uM. In kind it is toxicity.
Voltage-gated inwardly rectifying potassium channel KCNH2, sequence (Q12809 whole entry): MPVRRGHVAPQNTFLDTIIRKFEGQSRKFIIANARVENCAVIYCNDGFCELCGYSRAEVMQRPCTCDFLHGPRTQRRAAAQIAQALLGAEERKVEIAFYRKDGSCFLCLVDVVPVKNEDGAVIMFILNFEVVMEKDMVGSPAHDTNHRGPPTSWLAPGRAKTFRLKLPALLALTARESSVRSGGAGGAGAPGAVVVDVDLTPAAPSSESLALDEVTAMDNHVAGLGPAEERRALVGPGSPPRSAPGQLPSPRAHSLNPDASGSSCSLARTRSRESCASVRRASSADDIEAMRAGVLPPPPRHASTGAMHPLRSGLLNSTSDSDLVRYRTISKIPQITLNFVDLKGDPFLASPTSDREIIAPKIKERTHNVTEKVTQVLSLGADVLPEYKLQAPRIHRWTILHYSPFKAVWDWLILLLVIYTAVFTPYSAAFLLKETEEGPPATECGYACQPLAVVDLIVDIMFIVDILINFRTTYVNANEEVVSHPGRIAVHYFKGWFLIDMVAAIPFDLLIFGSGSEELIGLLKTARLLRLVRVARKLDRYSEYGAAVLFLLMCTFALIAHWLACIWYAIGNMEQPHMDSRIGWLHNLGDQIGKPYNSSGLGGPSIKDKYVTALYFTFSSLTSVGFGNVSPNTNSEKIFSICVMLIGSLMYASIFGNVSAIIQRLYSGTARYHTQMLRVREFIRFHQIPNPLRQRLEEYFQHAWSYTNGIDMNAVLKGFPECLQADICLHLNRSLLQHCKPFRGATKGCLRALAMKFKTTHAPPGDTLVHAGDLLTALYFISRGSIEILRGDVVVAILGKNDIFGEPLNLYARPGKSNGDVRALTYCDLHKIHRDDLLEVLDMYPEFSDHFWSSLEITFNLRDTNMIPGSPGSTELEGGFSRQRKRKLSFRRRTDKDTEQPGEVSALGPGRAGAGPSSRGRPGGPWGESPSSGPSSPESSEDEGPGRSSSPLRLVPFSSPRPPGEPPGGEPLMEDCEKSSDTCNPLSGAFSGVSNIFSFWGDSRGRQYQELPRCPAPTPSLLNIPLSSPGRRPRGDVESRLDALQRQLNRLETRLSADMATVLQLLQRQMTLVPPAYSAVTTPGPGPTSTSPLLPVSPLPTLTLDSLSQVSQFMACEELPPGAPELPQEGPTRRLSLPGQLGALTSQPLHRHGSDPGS
Series [3] has as its target T1, Cytochrome P450 1A2 (Homo sapiens, UniProt P05177).
T1 sequence (P05177 whole entry): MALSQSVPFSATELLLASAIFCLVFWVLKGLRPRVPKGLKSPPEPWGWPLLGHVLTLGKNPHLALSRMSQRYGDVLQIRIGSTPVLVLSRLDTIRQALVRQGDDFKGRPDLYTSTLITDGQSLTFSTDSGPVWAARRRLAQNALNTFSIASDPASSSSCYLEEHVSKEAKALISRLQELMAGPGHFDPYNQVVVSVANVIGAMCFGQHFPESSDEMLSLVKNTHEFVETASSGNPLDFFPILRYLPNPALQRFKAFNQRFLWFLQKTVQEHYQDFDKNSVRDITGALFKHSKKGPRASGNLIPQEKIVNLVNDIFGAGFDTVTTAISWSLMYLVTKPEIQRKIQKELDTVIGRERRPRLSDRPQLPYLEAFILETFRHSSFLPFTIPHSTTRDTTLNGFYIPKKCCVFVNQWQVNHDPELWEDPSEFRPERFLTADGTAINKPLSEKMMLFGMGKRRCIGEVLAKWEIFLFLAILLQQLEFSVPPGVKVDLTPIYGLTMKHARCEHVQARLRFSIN
Kind of series: Inhibition of CYP1A2 in human liver microsomes using phenacetin as substrate preincubated for 5 mins followed by NADPH addition and measured after 10 mins by LC-MS/MS analysis. Type of series: ADME, Microsome.

In series [4] the target is Cytochrome P450 2C19 (Homo sapiens, UniProt P33261). Put plainly: Inhibition of CYP2C19 in human liver microsomes using S-mephenytoin as substrate preincubated for 5 mins followed by NADPH addition and measured after 45 mins by LC-MS/MS analysis. In kind it is ADME, Microsome.
Cytochrome P450 2C19, sequence (P33261 whole entry): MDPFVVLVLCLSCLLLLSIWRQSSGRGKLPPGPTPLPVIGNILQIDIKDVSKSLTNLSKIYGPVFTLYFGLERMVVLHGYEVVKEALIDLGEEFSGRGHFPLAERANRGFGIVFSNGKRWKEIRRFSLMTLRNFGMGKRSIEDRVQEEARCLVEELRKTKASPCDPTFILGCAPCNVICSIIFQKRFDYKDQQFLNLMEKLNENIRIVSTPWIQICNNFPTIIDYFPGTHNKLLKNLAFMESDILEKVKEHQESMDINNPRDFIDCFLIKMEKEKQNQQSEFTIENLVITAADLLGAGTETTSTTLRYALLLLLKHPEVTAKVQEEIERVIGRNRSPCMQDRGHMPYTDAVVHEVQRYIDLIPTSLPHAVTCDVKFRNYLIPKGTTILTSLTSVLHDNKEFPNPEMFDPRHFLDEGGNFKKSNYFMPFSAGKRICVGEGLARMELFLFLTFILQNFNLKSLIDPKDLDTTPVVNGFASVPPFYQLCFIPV
Series [5] has as its target Cytochrome P450 2D6 (Homo sapiens, UniProt P10635). Kind of series: Inhibition of CYP2D6 in human liver microsomes using bufuralol as substrate preincubated for 5 mins followed by NADPH addition and measured after 10 mins by LC-MS/MS analysis. In kind it is ADME, Microsome.
For series [6], the target named is Cytochrome P450 3A4 (Homo sapiens, UniProt P08684). Put plainly: Inhibition of CYP3A4 in human liver microsomes using testosterone as substrate preincubated for 5 mins followed by NADPH addition and measured after 5 mins by LC-MS/MS analysis. Type of series: ADME, Microsome.
Cytochrome P450 3A4, sequence (P08684 whole entry): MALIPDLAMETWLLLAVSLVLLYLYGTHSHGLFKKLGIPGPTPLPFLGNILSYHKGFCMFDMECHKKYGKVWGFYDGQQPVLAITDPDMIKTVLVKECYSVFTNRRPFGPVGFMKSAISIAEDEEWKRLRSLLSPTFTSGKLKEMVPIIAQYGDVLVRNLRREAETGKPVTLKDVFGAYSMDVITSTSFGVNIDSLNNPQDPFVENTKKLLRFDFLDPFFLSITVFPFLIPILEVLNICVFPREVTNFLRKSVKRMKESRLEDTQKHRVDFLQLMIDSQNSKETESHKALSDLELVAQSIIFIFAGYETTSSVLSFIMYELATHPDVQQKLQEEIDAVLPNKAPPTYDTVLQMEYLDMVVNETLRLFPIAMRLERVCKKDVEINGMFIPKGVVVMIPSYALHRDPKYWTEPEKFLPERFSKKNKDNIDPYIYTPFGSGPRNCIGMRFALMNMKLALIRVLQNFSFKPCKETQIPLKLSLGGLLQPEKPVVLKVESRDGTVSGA
Series [7] in a line: Metabolic stability in rat liver microsomes assessed as intrinsic clearance in presence of NADPH by LC-MS/MS analysis.
Series [8] is described as follows: Inhibition of FIH (unknown origin). On the set-up: species or system Homo sapiens.

Cytochrome P450 2D6, sequence (P10635 whole entry): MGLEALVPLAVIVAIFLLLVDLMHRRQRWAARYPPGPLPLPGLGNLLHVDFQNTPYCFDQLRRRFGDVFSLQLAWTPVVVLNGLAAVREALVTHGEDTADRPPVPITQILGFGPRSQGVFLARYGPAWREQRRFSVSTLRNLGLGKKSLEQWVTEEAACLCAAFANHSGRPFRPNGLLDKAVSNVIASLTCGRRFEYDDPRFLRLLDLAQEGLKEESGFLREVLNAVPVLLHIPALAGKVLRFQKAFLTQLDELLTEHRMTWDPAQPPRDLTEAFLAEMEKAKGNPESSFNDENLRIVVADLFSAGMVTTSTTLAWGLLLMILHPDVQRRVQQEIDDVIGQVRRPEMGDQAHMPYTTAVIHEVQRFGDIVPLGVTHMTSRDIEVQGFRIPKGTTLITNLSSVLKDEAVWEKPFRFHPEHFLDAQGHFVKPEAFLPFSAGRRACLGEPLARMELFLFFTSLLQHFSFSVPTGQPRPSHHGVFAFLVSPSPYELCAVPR

As to `O=C(O)CNC(=O)c1ncc(-c2cc(-c3cc(Cl)cc(Cl)c3)no2)cc1O`, the IC50 in series [1], in series [3], in series [4], in series [5] and in series [6] was > 30 µM in each case. The “inhibition (INH)” value in series [2] is “Not_active”.
With `C[C@]12CC[C@H]3[C@@H](CCC4=CC(=O)CC[C@@]43C)[C@@H]1CC[C@@H]2O` [TESTOSTERONE], in series [7], the microsomal CLint was 1200 µL/min/mg.
The compound `O=C(O)Cc1cs/c(=N\C(=O)C2CCN(S(=O)(=O)Cc3ccccc3)C2)n1O` (stereo not drawn) yielded an IC50 in series [8] of 0.28 µM.
